Test results from PubChem BioAssay AID2060903 (Molecular Pharmacology Branch, DTP, NCI, 2025).

Tested on: 377384-186-R-J1-PDC complex spheroid viability
Assay: Anticancer human tumor 377384-186-R-J1-PDC patient-derived pancreatic carcinoma cell line growth inhibition [RAS]
Conditions: for IC50: curve of first compound; for viability, T/C: stronger effect = lower value
Method in brief: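 Agents were tested in combination matrices in half-log decrements from a top concentration at or near clinical Cmax (10 microM if undetermined). Targets were multi-cell spheroids of tumour lines plus HUVEC and MSC stromal cells.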

[1] = second compound 0.000949 µM, first compound 0.00316 µM
[2] = second compound 0.000949 µM, first compound 0.01 µM
[3] = second compound 0.000949 µM, first compound 0.0316 µM
[4] = second compound 0.000949 µM, first compound 0.1 µM
[5] = second compound 0.000949 µM, first compound 0.316 µM
[6] = second compound 0.000949 µM, first compound 1 µM
[7] = second compound 0.003 µM, first compound 0.00316 µM
[8] = second compound 0.003 µM, first compound 0.01 µM
[9] = second compound 0.003 µM, first compound 0.0316 µM
[10] = second compound 0.003 µM, first compound 0.1 µM
[11] = second compound 0.003 µM, first compound 0.316 µM
[12] = second compound 0.003 µM, first compound 1 µM
[13] = second compound 0.00949 µM, first compound 0.00316 µM
[14] = second compound 0.00949 µM, first compound 0.01 µM
[15] = second compound 0.00949 µM, first compound 0.0316 µM
[16] = second compound 0.00949 µM, first compound 0.1 µM
[17] = second compound 0.00949 µM, first compound 0.316 µM
[18] = second compound 0.00949 µM, first compound 1 µM
[19] = second compound 0.03 µM, first compound 0.00316 µM
[20] = second compound 0.03 µM, first compound 0.01 µM
[21] = second compound 0.03 µM, first compound 0.0316 µM
[22] = second compound 0.03 µM, first compound 0.1 µM
[23] = second compound 0.03 µM, first compound 0.316 µM
[24] = second compound 0.03 µM, first compound 1 µM
[25] = second compound 0.0949 µM, first compound 0.00316 µM
[26] = second compound 0.0949 µM, first compound 0.01 µM
[27] = second compound 0.0949 µM, first compound 0.0316 µM
[28] = second compound 0.0949 µM, first compound 0.1 µM
[29] = second compound 0.0949 µM, first compound 0.316 µM
[30] = second compound 0.0949 µM, first compound 1 µM
[31] = second compound 0.3 µM, first compound 0.00316 µM
[32] = second compound 0.3 µM, first compound 0.01 µM
[33] = second compound 0.3 µM, first compound 0.0316 µM
[34] = second compound 0.3 µM, first compound 0.1 µM
[35] = second compound 0.3 µM, first compound 0.316 µM
[36] = second compound 0.3 µM, first compound 1 µM
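Also: spheroids exposed to compounds for seven days before readout.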

C=CC(=O)Nc1cc(Nc2nccc(-c3cn(C)c4ccccc34)n2)c(OC)cc1N(C)CCN(C)C + CCn1c(-c2cc(N3CCN(C)CC3)cnc2C(C)OC)c2c3cc(ccc31)-c1csc(n1)CC(NC(=O)C1CC1C)C(=O)N1CCCC(N1)C(=O)OCC(C)(C)C2
IC50 (second compound 0.000949 µM): < 3.16 nM | IC50 (second compound 0.003 µM): < 3.16 nM | IC50 (second compound 0.00949 µM): < 3.16 nM | IC50 (second compound 0.03 µM): < 3.16 nM | IC50 (second compound 0.0949 µM): < 3.16 nM | IC50 (second compound 0.3 µM): < 3.16 nM | viability, T/C [1]: 30% | viability, T/C [2]: 45% | viability, T/C [3]: 32.3% | viability, T/C [4]: 27.5% | viability, T/C [5]: 12.1% | viability, T/C [6]: 4.35% | viability, T/C [7]: 17.5% | viability, T/C [8]: 17.3% | viability, T/C [9]: 11.2% | viability, T/C [10]: 4.88% | viability, T/C [11]: 2.22% | viability, T/C [12]: 1.8% | viability, T/C [13]: 4.04% | viability, T/C [14]: 11% | viability, T/C [15]: 3.16% | viability, T/C [16]: 3.12% | viability, T/C [17]: 1.55% | viability, T/C [18]: 1.78% | viability, T/C [19]: 2.43% | viability, T/C [20]: 1.94% | viability, T/C [21]: 1.75% | viability, T/C [22]: 2.15% | viability, T/C [23]: 2.02% | viability, T/C [24]: 1.52% | viability, T/C [25]: 2.3% | viability, T/C [26]: 1.82% | viability, T/C [27]: 1.99% | viability, T/C [28]: 2.1% | viability, T/C [29]: 1.5% | viability, T/C [30]: 0.91% | viability, T/C [31]: 2.2% | viability, T/C [32]: 1.68% | viability, T/C [33]: 1.82% | viability, T/C [34]: 1.46% | viability, T/C [35]: 1.28% | viability, T/C [36]: 0.91%

CC(Nc1ccc2c(c1)OCCn1cc(N3C(=O)OCC3C(F)F)nc1-2)C(N)=O (stereo unspecified) + CCn1c(-c2cc(N3CCN(C)CC3)cnc2C(C)OC)c2c3cc(ccc31)-c1csc(n1)CC(NC(=O)C1CC1C)C(=O)N1CCCC(N1)C(=O)OCC(C)(C)C2
IC50 (second compound 0.000949 µM): < 31.6 nM | IC50 (second compound 0.003 µM): < 31.6 nM | IC50 (second compound 0.00949 µM): < 31.6 nM | IC50 (second compound 0.03 µM): < 31.6 nM | IC50 (second compound 0.0949 µM): < 31.6 nM | IC50 (second compound 0.3 µM): < 31.6 nM | viability, T/C [3]: 38.5% | viability, T/C [4]: 27% | viability, T/C [5]: 20.7% | viability, T/C [6]: 14.9% | viability, T/C (second compound 0.000949 µM, first compound 3.16 µM): 15.3% | viability, T/C (second compound 0.000949 µM, first compound 10 µM): 10% | viability, T/C [9]: 16.6% | viability, T/C [10]: 13.9% | viability, T/C [11]: 6.73% | viability, T/C [12]: 6.02% | viability, T/C (second compound 0.003 µM, first compound 3.16 µM): 4.06% | viability, T/C (second compound 0.003 µM, first compound 10 µM): 4.35% | viability, T/C [15]: 4.34% | viability, T/C [16]: 2.53% | viability, T/C [17]: 3.61% | viability, T/C [18]: 1.94% | viability, T/C (second compound 0.00949 µM, first compound 3.16 µM): 1.23% | viability, T/C (second compound 0.00949 µM, first compound 10 µM): 0.59% | viability, T/C [21]: 1.88% | viability, T/C [22]: 1.58% | viability, T/C [23]: 0.84% | viability, T/C [24]: 0.45% | viability, T/C (second compound 0.03 µM, first compound 3.16 µM): 0.4% | viability, T/C (second compound 0.03 µM, first compound 10 µM): 0.18% | viability, T/C [27]: 1.11% | viability, T/C [28]: 0.55% | viability, T/C [29]: 0.59% | viability, T/C [30]: 0.36% | viability, T/C (second compound 0.0949 µM, first compound 3.16 µM): 0.09% | viability, T/C (second compound 0.0949 µM, first compound 10 µM): 0.09% | viability, T/C [33]: 1.13% | viability, T/C [34]: 0.5% | viability, T/C [35]: 0.4% | viability, T/C [36]: 0.29% | viability, T/C (second compound 0.3 µM, first compound 3.16 µM): 0.21% | viability, T/C (second compound 0.3 µM, first compound 10 µM): 0.14%

O=C(c1ccc(F)c(F)c1Nc1ccc(I)cc1F)N1CC(O)([C@@H]2CCCCN2)C1 + CCn1c(-c2cc(N3CCN(C)CC3)cnc2C(C)OC)c2c3cc(ccc31)-c1csc(n1)CC(NC(=O)C1CC1C)C(=O)N1CCCC(N1)C(=O)OCC(C)(C)C2
IC50 (second compound 0.000949 µM): < 3.16 nM | IC50 (second compound 0.003 µM): < 3.16 nM | IC50 (second compound 0.00949 µM): < 3.16 nM | IC50 (second compound 0.03 µM): < 3.16 nM | IC50 (second compound 0.0949 µM): < 3.16 nM | IC50 (second compound 0.3 µM): < 3.16 nM | viability, T/C [1]: 40.6% | viability, T/C [2]: 28.1% | viability, T/C [3]: 9.77% | viability, T/C [4]: 2.04% | viability, T/C [5]: 0.28% | viability, T/C [6]: 0.8% | viability, T/C [7]: 16.4% | viability, T/C [8]: 4.75% | viability, T/C [9]: 3.32% | viability, T/C [10]: 1.15% | viability, T/C [11]: 0.17% | viability, T/C [12]: 0.13% | viability, T/C [13]: 3.22% | viability, T/C [14]: 2.06% | viability, T/C [15]: 1.32% | viability, T/C [16]: 0.24% | viability, T/C [17]: 0.08% | viability, T/C [18]: 0.13% | viability, T/C [19]: 2.61% | viability, T/C [20]: 1.37% | viability, T/C [21]: 0.71% | viability, T/C [22]: 0.07% | viability, T/C [23]: 0.12% | viability, T/C [24]: 0.09% | viability, T/C [25]: 1.11% | viability, T/C [26]: 0.96% | viability, T/C [27]: 0.28% | viability, T/C [28]: 0.12% | viability, T/C [29]: 0.15% | viability, T/C [30]: 0.18% | viability, T/C [31]: 1.01% | viability, T/C [32]: 1.34% | viability, T/C [33]: 0.16% | viability, T/C [34]: 0.2% | viability, T/C [35]: 0.28% | viability, T/C [36]: 0.18%
